Numbers after ± are expanded uncertainties.

For data set [1] the following is noted: Liquid; for mass density: 298.15 K, 101.33 kPa.
Data set [2] in a line: refractive index (Na D-line) (dimensionless). Particulars: 298.15 K; 101.33 kPa; Liquid; Standard Abbe refractometry.

On to `CCOC(C)(C)CC` [1,1-dimethylpropyl ethyl ether], for which, in data set [1], the mass density came to 760.57 ± 0.66 kg/m3 and the Normal boiling temperature is 101.42 ± 0.08 °C. In addition, the refractive index in data set [2] worked out at 1.38857 ± 0.00072.
Turning to `CCO` [ethanol], in data set [1], the mass density is reported as 785.22 ± 0.64 kg/m3 and the Normal boiling temperature came out at 78.29 ± 0.08 °C. Further, the refractive index in data set [2] worked out at 1.3592 ± 0.00073.
For `CO` [methanol], in that order: 786.63 ± 0.63 kg/m3, 64.4 ± 0.08 °C and 1.3264 ± 0.0007.

(Values after the NIST ThermoML archive (doi:10.1016/j.fluid.2005.04.003).)
